Measurements: patent publication US7605168B2 (Plexxikon, Inc., priority 2004, dated 2009)

Key:
[1] = tested on: TNF-α release from whole blood cultures stimulated with LPS; test: IC50 by TNF alpha production upon stimulation of whole blood cultures with LPS; assay type: cell-based; settings: human whole blood (buffy coat) culture, 100 ng/ml LPS, 4 hours; read-out: h TNFα IC50
Method: Compounds were assayed to generate IC50 numbers based on the inhibition of TNF-α release from whole blood cultures, using the following assay protocol (see Table 5 for compounds tested and results). Inhibition of PDE4B results in the inhibition of TNF-α release by whole blood cultures stimulated with lipopolysaccharide (LPS). The measurement of TNF-α release was used to assess compounds as PDE4B inhibitors.
Compounds were provided in DMSO at 20 mM and 2 μl per well was added to one row of a dilution plate. Added 98 μl of RPMI 1640 media with 2.5% heat inactivated FBS to each well containing compound. The same media with 2% DMSO was prepared and 60 μl was added to each of the empty wells in the dilution plate. The compound was serially diluted 1:3 (30 μl to 60 μl of media) for a total of 8 concentrations per compound. Wells were also prepared with 50 μM roflumilast and piclamilast as 100% inhibition controls, and 2% DMSO in media was used as 0% inhibition control. A 20 μl aliquot of each sample was transferred to an assay plate in duplicate.
Human buffy coat was obtained from the Stanford Medical School Blood Center and diluted with 7 volumes of RPMI 1640 media with 1% penicillin/streptomycin and 2.5% heat inactivated FBS. A 160 μl aliquot of the diluted blood was added to each well of the assay plates, mixed and incubated for 1 hour at 37° C. in 5% CO2. LPS (Sigma catalog number L2637) that had been diluted to 1 mg/ml in PBS and stored as 20 μl aliquots at −20° C. was thawed and diluted 1000× to 1 μg/ml. A 20 μl aliquot of this was added to each sample (final concentration 100 ng/ml LPS) after the 1 hour incubation. A background sample was prepared without addition of LPS as well. The samples were mixed on a shaker for one minute at 900 RPM and incubated for 4 hours at 37° C. in 5% CO2. The plates were then put on a shaker for one minute at 900 RPM, followed by centrifuging at 100×g for 10 minutes, deceleration setting of 5. The top 75 μl of supernatant was carefully pipetted to a new plate and frozen at −20° C.
A 50 μl aliquot of incubation buffer (Biosource International Immunoassay Kit:Human TNF-α catalog number KHC3011) was added to each well of a plate coated with monoclonal antibody specific for hTNF-α (Biosource kit). The supernatant blood samples were thawed and a 50 μl aliquot along with 50 μl of diluent buffer (Biosource kit) were added to incubation buffer and the samples were incubated for 2 hours at room temperature. The samples were washed 4 times with 300 μl/well wash buffer (Biosource kit). A 100 μl aliquot of biotinylated anti-TNFalpha (Biosource kit) was added and the samples incubated for 1 hour at room temperature. The samples were washed 4 times with 300 μl/well wash buffer. A 100 μl aliquot of Streptavidin-HRP solution (BioSource kit) was added and the samples incubated for 30 minutes at room temperature. The samples were washed 4 times with 300 μl/well wash buffer. A 100 μl aliquot of Chromagen (Biosource kit) was added and the samples incubated in the dark for 30 minutes. A 100 μl aliquot of stop solution (2N H2SO4) was added to each sample and samples were read at 450 nm on a WallacVictor for 0.1 sec/well.

[2] = molecular target: T1, PDE4B: catalytic domain of human PDE4B from S152-S528 (Homo sapiens, UniProt Q07343); test: PDE4 IC50 determination by Scintillation Proximity Assay (SPA), PDE4B catalytic domain; assay type: biochemical; settings: [3H]cAMP SPA, 30 min at 30° C.
T1 construct: The catalytic domain of human PDE4B from S152-S528; His6 (N, cleaved yes); thrombin cleavage site (N, cleaved yes); made in house; host or cells: E. coli BL21 (DE3) RIL
T1 sequence (Q07343 324-700): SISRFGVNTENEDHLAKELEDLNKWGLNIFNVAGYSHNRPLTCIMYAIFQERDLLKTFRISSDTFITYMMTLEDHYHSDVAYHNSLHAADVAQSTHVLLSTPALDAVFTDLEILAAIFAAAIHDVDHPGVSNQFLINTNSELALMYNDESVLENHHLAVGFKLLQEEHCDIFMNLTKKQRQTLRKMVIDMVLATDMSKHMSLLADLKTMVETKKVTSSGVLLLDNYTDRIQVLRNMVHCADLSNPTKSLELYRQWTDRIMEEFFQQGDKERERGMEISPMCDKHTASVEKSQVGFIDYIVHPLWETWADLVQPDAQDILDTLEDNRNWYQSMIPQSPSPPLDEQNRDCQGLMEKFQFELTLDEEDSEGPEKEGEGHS
Method: (§1) IC50s were determined by Scintillation Proximity Assay (SPA). The principle of the assay is based on the fact that cAMP, the PDE4 substrate, binds weakly to Yittrium Silicate SPA beads, whereas AMP, the product of PDE4 hydrolysis binds strongly. Thus, the extent of PDE4 hydrolysis of a sample of [^3H]cAMP can be measured because only the [^3H]AMP produced by PDE4 hydrolysis will bind to the SPA beads and produce a scintillation signal.
Enzyme was stored in 50% glycerol at −20°.
(§2) In addition to the compound dilutions, each assay plate contained control wells with 1 μl of DMSO (to define 0% enzyme inhibition) or 1 μl of 200 μM roflumilast (to define 100% enzyme inhibition). Using a Beckman FX robot, 10 μl of [^3H] cAMP (Amersham TRK559) at […] in assay buffer (50 mM Tris, pH 7.5; 8.3 mM MgCl; 1.7 mM EGTA; 0.01% BSA) was transferred to each assay well. Next, 10 μl of PDE4 enzyme in assay buffer was added and the plates were shaken for 30 s. at 1000 rpm to start the cAMP hydrolysis reaction. The concentrations of enzyme used were: PDE4B, 80 ng/ml; PDE4D, 4 ng/ml; PDE4B2, 2.5 μl of 50% glycerol stock/ml; PDE4D5 0.083 μl of 50% glycerol stock/ml. Assay plates were covered and incubated for 30 min. at 30° C. Reactions were stopped by robotic addition of 10 μl of 5 mg/ml SPA beads (Amersham RPNQ0013) in 18 mM ZnSO4. The assay plates were covered with clear plastic film, centrifuged for 1 min. at 1000 RPM to settle the SPA beads, and counted using a Wallac TriLux scintillation counter. IC50's were calculated from the raw assay data by non-linear regression curve fitting using the Assay Explorer software package from MDL.

[3] = molecular target: T2, PDE4D5: full-length human PDE4D5 isozyme (Homo sapiens, UniProt Q08499); test: PDE4 IC50 determination by Scintillation Proximity Assay (SPA), full-length PDE4D5; assay type: biochemical; settings: cell lysate, [3H]cAMP SPA
T2 construct: made in house; host or cells: baculovirus infected insect cells (pFastBacHT)
T2 sequence (Q08499 with tags, fused parts or gaps isoform Q08499-6): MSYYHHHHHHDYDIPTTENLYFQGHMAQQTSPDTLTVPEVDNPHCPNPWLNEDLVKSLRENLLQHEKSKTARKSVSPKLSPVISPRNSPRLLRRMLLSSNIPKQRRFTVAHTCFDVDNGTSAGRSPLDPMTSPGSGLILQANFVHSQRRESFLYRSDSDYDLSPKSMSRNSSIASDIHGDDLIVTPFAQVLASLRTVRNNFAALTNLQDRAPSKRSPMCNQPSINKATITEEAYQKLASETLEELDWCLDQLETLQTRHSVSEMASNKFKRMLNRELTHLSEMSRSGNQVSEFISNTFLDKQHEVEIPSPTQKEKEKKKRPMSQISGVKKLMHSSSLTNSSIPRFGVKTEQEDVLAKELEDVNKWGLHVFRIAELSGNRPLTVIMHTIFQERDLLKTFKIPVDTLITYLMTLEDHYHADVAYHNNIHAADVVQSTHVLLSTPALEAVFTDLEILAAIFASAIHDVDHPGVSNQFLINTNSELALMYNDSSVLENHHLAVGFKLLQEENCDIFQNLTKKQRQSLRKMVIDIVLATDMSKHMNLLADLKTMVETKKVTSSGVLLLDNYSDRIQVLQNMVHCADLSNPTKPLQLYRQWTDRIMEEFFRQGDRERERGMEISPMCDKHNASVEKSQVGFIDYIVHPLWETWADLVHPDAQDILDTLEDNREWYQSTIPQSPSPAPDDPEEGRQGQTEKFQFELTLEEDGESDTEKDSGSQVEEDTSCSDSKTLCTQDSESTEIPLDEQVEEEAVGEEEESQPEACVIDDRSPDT
Method: (§3) The enzyme was not purified from the cell lysates, so enzyme concentrations were not determined. Enzyme was stored in 50% glycerol at −20°.
as §1, §2

[4] = molecular target: T3, PDE4B2: full-length human PDE4B2 isozyme (Homo sapiens, UniProt Q07343); test: PDE4 IC50 determination by Scintillation Proximity Assay (SPA), full-length PDE4B2; assay type: biochemical; settings: cell lysate, [3H]cAMP SPA
T3 construct: made in house; host or cells: baculovirus infected insect cells (pFastBacHT)
T3 sequence (Q07343 with tags, fused parts or gaps isoform Q07343-2): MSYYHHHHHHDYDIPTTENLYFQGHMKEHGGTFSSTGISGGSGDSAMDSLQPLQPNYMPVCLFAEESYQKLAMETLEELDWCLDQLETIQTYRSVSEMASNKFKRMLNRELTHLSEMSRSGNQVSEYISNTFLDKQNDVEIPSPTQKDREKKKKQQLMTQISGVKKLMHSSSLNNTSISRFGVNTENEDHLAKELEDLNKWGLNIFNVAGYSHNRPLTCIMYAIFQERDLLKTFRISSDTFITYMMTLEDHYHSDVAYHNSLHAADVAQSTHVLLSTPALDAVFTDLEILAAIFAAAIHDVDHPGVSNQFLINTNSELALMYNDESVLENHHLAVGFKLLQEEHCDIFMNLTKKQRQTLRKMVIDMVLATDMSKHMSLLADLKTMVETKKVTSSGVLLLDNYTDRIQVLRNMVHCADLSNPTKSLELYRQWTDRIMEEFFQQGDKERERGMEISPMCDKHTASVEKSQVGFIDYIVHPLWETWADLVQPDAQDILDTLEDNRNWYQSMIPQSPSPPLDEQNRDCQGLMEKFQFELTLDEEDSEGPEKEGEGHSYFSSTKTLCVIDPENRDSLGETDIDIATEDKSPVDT
Method: as §3, §1, §2

| SMILES | IC50 [1] [µM] | IC50 [2] [µM] | IC50 [3] [µM] | IC50 [4] [µM] |
| --- | --- | --- | --- | --- |
| COc1ccc(-c2cn(S(=O)(=O)c3cccc(-c4cnco4)c3)c3ncccc23)cc1OC [Compound 72, 3-(3,4-Dimethoxy-phenyl)-1-(3-oxazol-5-yl-benzenesulfonyl)-1H-pyrrolo[2,3-b]pyridine] | ≤ 10 | < 10 | < 10 | < 10 |
| CCOc1ccc2ccccc2c1C(=O)n1cc(-c2cccc(C(N)=O)c2)c2cccnc21 [Compound 121, 3-[1-(2-Ethoxy-naphthalene-1-carbonyl)-1H-pyrrolo[2,3-b]pyridin-3-yl]-benzamide] | ≤ 10 | – | < 10 | < 10 |
| COc1ccc(-c2cn(S(=O)(=O)c3cccc4cccnc34)c3ccc(Cl)cc23)cc1OC [Compound 93, 8-[3-(3,4-Dimethoxy-phenyl)-5-chloro-indole-1-sulfonyl]-quinoline] | ≤ 10 | – | < 10 | < 10 |
| COc1ccc(-c2cn(Cc3ccccc3CS(=O)(=O)c3ccccc3)c3ncccc23)cc1OC [Compound 74, 1-(2-Benzenesulfonylmethyl-benzyl)-3-(3,4-dimethoxy-phenyl)-1H-pyrrolo[2,3-b]pyridine] | ≤ 10 | < 10 | < 10 | < 10 |
| COc1ccc(-c2cnc3[nH]cc(C#Cc4ccccc4)c3c2)cc1OC [Compound 138, 5-(3,4-Dimethoxy-phenyl)-3-phenylethynyl-1H-pyrrolo[2,3-b]pyridine] | ≤ 10 | – | < 10 | < 10 |
| COc1ccc(-c2cn(S(=O)(=O)c3csc4ccccc34)c3ncccc23)cc1OC [Compound 91, 1-(Benzo[b]thiophene-3-sulfonyl)-3-(3,4-dimethoxy-phenyl)-1H-pyrrolo[2,3-b]pyridine] | > 10 | < 10 | < 10 | < 10 |
| COc1ccc(-c2cccc3c2ccn3S(=O)(=O)c2cccc3cccnc23)cc1OC [Compound 131, 8-[4-(3,4-Dimethoxy-phenyl)-indole-1-sulfonyl]-quinoline] | ≤ 10 | – | < 10 | < 10 |
| CCOc1ccc2ccccc2c1C(=O)n1cc(-c2cccc(NS(C)(=O)=O)c2)c2cccnc21 [Compound 122, N-{3-[1-(2-Ethoxy-naphthalene-1-carbonyl)-1H-pyrrolo[2,3-b]pyridin-3-yl]-phenyl}-methanesulfonamide] | ≤ 10 | – | < 10 | < 10 |
| CCOc1ccc2ccccc2c1C(=O)n1cc(-c2ccc(S(C)(=O)=O)cc2)c2cccnc21 [Compound 84, (2-Ethoxy-naphthalen-1-yl)-[3-(4-methanesulfonyl-phenyl)-pyrrolo[2,3-b]pyridin-1-yl]-methanone] | ≤ 10 | – | < 10 | < 10 |
| CCOc1ccc2ccccc2c1C(=O)n1cc(-c2cccc(S(C)(=O)=O)c2)c2cccnc21 [Compound 86, (2-Ethoxy-naphthalen-1-yl)-[3-(3-methanesulfonyl-phenyl)-pyrrolo[2,3-b]pyridin-1-yl]-methanone] | ≤ 10 | – | < 10 | < 10 |
| COc1ccc(-c2cn(C(=O)c3ccc(C#N)cc3)c3ncccc23)cc1OC [Compound 106, 4-[3-(3,4-Dimethoxy-phenyl)-pyrrolo[2,3-b]pyridine-1-carbonyl]-benzonitrile] | ≤ 10 | – | < 10 | < 10 |
| COc1ccc(-c2cnc3c(ccn3S(=O)(=O)c3ccccc3)c2)cc1OC [Compound 132, 1-Benzenesulfonyl-5-(3,4-dimethoxy-phenyl)-1H-pyrrolo[2,3-b]pyridine] | ≤ 10 | – | < 10 | < 10 |
| COc1ccc(-c2ccc3c(ccn3S(=O)(=O)c3cccc4cccnc34)c2)cc1OC [Compound 130, 8-[5-(3,4-Dimethoxy-phenyl)-indole-1-sulfonyl]-quinoline] | ≤ 10 | – | < 10 | < 10 |
| COc1ccc(-c2cnc3[nH]cc(C#Cc4cccc(C(=O)O)c4)c3c2)cc1OC [Compound 140, 3-[5-(3,4-Dimethoxy-phenyl)-1H-pyrrolo[2,3-b]pyridin-3-ylethynyl]-benzoic acid] | > 10 | – | < 10 | < 10 |
| COc1ccc(-c2cccc3[nH]ccc23)cc1OC [Compound 128, 4-(3,4-Dimethoxy-phenyl)-1H-indole] | ≤ 10 | – | < 10 | < 10 |
| CCOc1ccc2ccccc2c1C(=O)n1cc(-c2ccc(OC)c(OC3CCCC3)c2)c2cccnc21 [Compound 119, [3-(3-Cyclopentyloxy-4-methoxy-phenyl)-pyrrolo[2,3-b]pyridin-1-yl]-(2-ethoxy-naphthalen-1-yl)-methanone] | ≤ 10 | – | < 10 | < 10 |
| COC(=O)c1cccc(C#Cc2c[nH]c3ncc(-c4ccc(OC)c(OC)c4)cc23)c1 [Compound 139, 3-[5-(3,4-Dimethoxy-phenyl)-1H-pyrrolo[2,3-b]pyridin-3-ylethynyl]-benzoic acid methyl ester] | > 10 | – | < 10 | < 10 |
| CCOc1ccc2ccccc2c1C(=O)n1cc(-c2cccc(C(=O)OCc3ccccc3)c2)c2cccnc21 [Compound 87, 3-[1-(2-Ethoxy-naphthalene-1-carbonyl)-1H-pyrrolo[2,3-b]pyridin-3-yl]-benzoic acid benzyl ester] | ≤ 10 | – | < 10 | < 10 |
| COc1ccc(-c2ccc3[nH]ccc3c2)cc1OC [Compound 129, 5-(3,4-Dimethoxy-phenyl)-1H-indole] | ≤ 10 | – | < 10 | < 10 |
| COc1ccc2c(c1)c(-c1ccc(OC)c(OC)c1)cn2S(=O)(=O)c1cccc2cccnc12 [Compound 92, 8-[3-(3,4-Dimethoxy-phenyl)-5-methoxy-indole-1-sulfonyl]-quinoline] | ≤ 10 | – | < 10 | < 10 |
